The text below walks through data of ChEMBL document CHEMBL3045817, “Magnetic resonance assays of haloperidol in human serum albumin” (Med Chem Res, 2011).

Data set [1] has as its system Brain. Nature of the data set: Drug uptake in healthy Homo sapiens (human) brain by NMR analysis. The class given is ADME, tissue-based.
Data set [2] is described as follows: Bioavailability in Homo sapiens (human) at 2.5 mg, intranasal after 15 min. Particulars: in vivo, inhaled or intranasal; call rule not given here. The class given is ADME, organism-based.
Data set [3] can be described thus: Plasma protein binding in Homo sapiens (human). Particulars: read-out: PPB (converted). It counts as ADME, cell-free.
Data set [4] can be described thus: Bioavailability in Homo sapiens (human) at 2.5 mg, intramuscular after 15 min. It counts as ADME, organism-based. As to conditions: in vivo, im.
Data set [5] is described as follows: Drug uptake in depression pateint brain at 20 mg/day after 3 days by NMR analysis. The class given is ADME. As to conditions: human, read-out: Drug uptake.
Data set [6] concerns the target Albumin (Homo sapiens, UniProt P02768). Nature of the data set: Binding affinity to Homo sapiens (human) serum albumin at 1.5 to 800 ug/ml by NMR analysis. Particulars: isolated protein. It counts as ADME.

The bioavailability is the share of a dose that reaches the circulation, judged against a reference dose that is usually intravenous.

Sequence of Albumin (P02768 whole entry): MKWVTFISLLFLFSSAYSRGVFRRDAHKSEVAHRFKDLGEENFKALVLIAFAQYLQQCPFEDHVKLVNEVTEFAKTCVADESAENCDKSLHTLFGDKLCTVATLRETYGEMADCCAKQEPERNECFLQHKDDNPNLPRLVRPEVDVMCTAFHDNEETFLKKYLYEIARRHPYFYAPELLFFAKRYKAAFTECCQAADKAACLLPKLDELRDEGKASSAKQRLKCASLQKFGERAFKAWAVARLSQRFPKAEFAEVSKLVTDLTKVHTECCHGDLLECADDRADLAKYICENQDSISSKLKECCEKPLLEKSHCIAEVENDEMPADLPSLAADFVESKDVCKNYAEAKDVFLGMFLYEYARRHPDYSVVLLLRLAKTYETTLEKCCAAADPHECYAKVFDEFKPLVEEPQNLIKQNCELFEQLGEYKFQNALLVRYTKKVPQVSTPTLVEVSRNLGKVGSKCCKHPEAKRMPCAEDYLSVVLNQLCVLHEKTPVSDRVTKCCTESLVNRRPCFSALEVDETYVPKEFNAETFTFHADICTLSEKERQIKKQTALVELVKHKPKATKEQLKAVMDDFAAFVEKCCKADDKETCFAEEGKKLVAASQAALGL

`OCCN1CCN(CCCN2c3ccccc3Sc3ccc(C(F)(F)F)cc32)CC1` [FLUPHENAZINE] had a Drug uptake in data set [1] of 4 µg/mL.
Turning to `O=C(CCCN1CCC(O)(c2ccc(Cl)cc2)CC1)c1ccc(F)cc1` [HALOPERIDOL], the bioavailability is 63.8% in data set [2] and 48.6% in data set [4]. For the same molecule, the fraction unbound in data set [3] is 0.1.
Consider `Fc1ccc([C@@H]2CCNC[C@H]2COc2ccc3c(c2)OCO3)cc1` [PAROXETINE], for which, in data set [5], the concentration at 72 h was found to be 6000 ng/mL.
The molecule `CN1CCN(CCCN2c3ccccc3Sc3ccc(C(F)(F)F)cc32)CC1` [TRIFLUOPERAZINE] had a Drug uptake in data set [1] of 4 µg/mL.
With `O=C(CCCN1CCC(O)(c2ccc(Cl)cc2)CC1)c1ccc([19F])cc1` [[19F]-HALOPERIDOL], in data set [6], the result was Active.
